Laboratory results taken from patent publication US20110236504A1, “VERSATILE DISINFECTANT” (priority 2008, published 2011).
Several values for one entry are separate records, joined by “and”; a condition that tells them apart may be missing. Equal values may be shown once. Read-outs that look alike come from different tables or passages of the source.

Tests used:
[1] = test system: viable bacteria in saliva; experiment: Effect of gargle, viable bacteria in saliva; assay type: in vivo, persons; conditions: for number of viable bacteria in saliva, relative value: before gargle = 100, one value per person
Protocol: Next, the efficacy of the disinfectant was examined when it is used for a gargle. The number of viable bacteria was counted in 1 ml of saliva that was collected from each of three persons before a gargle. Then, each person gargled three times each for 20 seconds, that is, gargled for total of 1 minute, with the disinfectant of the present invention that was prepared in Preparation Example 6. Each saliva was collected immediately after the gargle and at 15 minutes, 30 minutes, and 60 minutes after the gargle. The number of viable bacteria was counted per 1 ml of the saliva, and the effect of gargle was determined. Here, the number of viable bacteria before gargle is regarded as 100, and relative values are shown.
As a control, each of two persons was gargled with tap water or 1000 ppm povidone-iodine in a similar way.

[2] = test system: spores of Bacillus species; experiment: Spore decay time and decay rate in dried soil, aerobic culture; assay type: cell-based; conditions: for Spore decay rate, Spores of Bacillus species: 1 g dried soil in 10 ml, aerobic culture
Protocol: (§1) Sands in a sandbox in a park and riverside soil were collected and mixed. The mixture was dried with heated air at 80 to 90° C. for 6 hours. Then, 1 g of the dried mixture was added into water and immediately filtered with a filter. A part of the filtrate was applied onto a glass slide, and spores were stained in a common procedure. The number of stained spores was counted and the number of spores contained in 1 g of soil was determined. Simultaneously, the spores were aerobically (Bacillus species proliferated) and anaerobically (Clostridium species proliferated) cultured, and each ratio was determined.
(§2) Then, into 10 ml of the sample disinfectant, 1 g of the dried soil was added. Some of the mixture was collected with time, and cultured aerobically and anaerobically. The number of growing colonies was counted to determine the decay rate of the spores.

[3] = test system: intestinal bacteria in feces; experiment: Sterilization effect on specimen: feces; conditions: for The number of viable bacteria in specimen: Feces 1.5 × 10^11/g
[4] = test system: viable bacteria in sputum; experiment: Sterilization effect on specimen: sputum; conditions: Sputum 2 × 10^9/g
[5] = test system: spores of Clostridium species; experiment: Spore decay time and decay rate in dried soil, anaerobic culture; assay type: cell-based; conditions: for Spore decay rate, Spores of Clostridium species: 1 g dried soil in 10 ml, anaerobic culture
Protocol: as §1, §2

[6] = test system: viable bacteria on skin surface; experiment: Application on hand skin, swab method; assay type: in vivo; conditions: for The number of viable bacteria on skin surface, relative value: before application = 100
Protocol: The disinfectant prepared in Preparation Example 3 was applied. Immediately after that, an area of 10 cm^2 was wiped with sterile gauze that was immersed into sterile physiological saline. Then, the number of bacteria was counted (Swab method). Next, different areas each having an area of 10 cm^2 were wiped in the applied area after 15 minutes, after 30 minutes, and after 60 minutes, and the viability of bacteria on the skin was determined. As controls, tap water and 70% ethanol were used. The number of bacteria before the application of disinfectants is regarded as 100 and relative values are shown.

[7] = test system: pus mainly including antibiotic resistant MRSA; conditions: Pus (MRSA) 4 × 10^9/g
[8] = test system: pus mainly including antibiotic resistant Pseudomonas aeruginosa (MDRP); conditions: Pus (MDRP) 5 × 10^9/g
[9] = Investigation of aqueous L-ascorbic acid solution; assay type: cell-based
Source text: L-ascorbic acid (vitamin C) is essential for a living body and well fitted to body tissues. Addition of a small amount of L-ascorbic acid increases affinity to cellular tissues.

[10] = test system: S. aureus 209P; experiment: 100% death time on contact with solution; assay type: cell-based
Source text: Examples of the effect are shown below.

[11] = test system: E. coli O-157; experiment: Metal ion or food preservative added to growth medium, viable count; assay type: cell-based; conditions: metal ion in growth medium
Protocol: (§3) To a standard medium for counting viable bacteria described below, each metal ion with varied concentration was added. […] Then, the number of viable bacteria was counted with time in a common procedure.
(§4) Sample bacteria: S. aureus 209P as a representative of Gram-positive bacteria • E. coli 0-157 as a representative of Gram-negative bacteria
(§5) Standard medium for counting viable bacteria: yeast extract 2.5 g, peptone 5 g, glucose 1 g, agar 15 g, pH 7.2

[12] = test system: S. aureus 209P; experiment: as above; assay type: cell-based; conditions: metal ion in growth medium
Protocol: as §3, §4, §5

[13] = test system: E. coli O-157; experiment: 100% death time on contact with solution
[14] = Cu^2+ 50 ppm + L-ascorbic acid 100 ppm
[15] = Cu^2+ 50 ppm + L-ascorbic acid 100 ppm + potassium sorbate 50 ppm
[16] = Cu^2+ 50 ppm + potassium sorbate 50 ppm
[17] = Cu^2+ 50 ppm + sodium lauryl sulfate 50 ppm
[18] = Cu^2+ 50 ppm + sodium lauryl sulfate 50 ppm + L-ascorbic acid 100 ppm
[19] = Cu^2+ 50 ppm + sodium lauryl sulfate 50 ppm + L-ascorbic acid 100 ppm + potassium sorbate 50 ppm

Which “number of bacteria in saliva relative to before gargle” value ([1]; after 60 minutes) does the source give for povidone-iodine here?
The value was 30 to 40%.

What about the “number of viable bacteria in saliva, relative value” (“number … in saliva, relative value” for short) ([1]; after 15 min) of the same compound?
The value was 5 and 8.

And the “number … in saliva, relative value” ([1]; after 30 min)?
Its value is 18 and 20.

What about the “number … in saliva, relative value” ([1]; after 60 min) of the same compound?
Its value is 30 and 40.

And the “number … in saliva, relative value” ([1]; immediately after gargle)?
The value was 2.

And the “number of bacteria in saliva relative to before gargle” value ([1]; immediately after the gargle)?
The value was 2%.

Which “effect on the spores” value [2] does the source give for `CCO` [70% Ethanol, ethanol] here?
Its value is “no effect”.

And the “Spore decay rate, Spores of Bacillus species” value ([2]; 1 min contact)?
Its value is 0%.

What about the “Spore decay rate, Spores of Bacillus species” value ([2]; 5 min contact) of the same compound?
Its value is 0%.

What about the “Spore decay rate, Spores of Bacillus species” value ([2]; 10 min contact) of the same compound?
The value was 0%.

What about the “Spore decay rate, Spores of Bacillus species” value ([2]; 30 min contact) of the same compound?
Its value is 0%.

What about the “Spore decay rate, Spores of Bacillus species” value ([2]; 60 min contact) of the same compound?
The value was 0%.

What about the “Spore decay rate, Spores of Bacillus species” value ([2]; 120 min contact) of the same compound?
Its value is 0%.

What about the “The number of viable bacteria in specimen” value (shortened to “The number … in specimen”) ([3]; 5 min after addition) of the same compound?
The value was 5e+06 g⁻¹.

What about the “The number … in specimen” value ([3]; 15 min after addition) of the same compound?
The value was 3000 g⁻¹.

What about the “The number … in specimen” value ([3]; 30 min after addition) of the same compound?
Its value is 4e+10 g⁻¹.

What about the “The number … in specimen” value ([3]; 60 min after addition) of the same compound?
The value was 4e+16 g⁻¹.

And the “effect on bacteria in feces” value ([3]; feces)?
The value was “only slightly decreased”.

What about the “The number … in specimen” value ([4]; 5 min after addition) of the same compound?
Its value is 1e+08 g⁻¹.

And the “The number … in specimen” value ([4]; 15 min after addition)?
The value was 2e+07 g⁻¹.

And the “The number … in specimen” value ([4]; 30 min after addition)?
Its value is 6e+06 g⁻¹.

And the “The number … in specimen” value ([4]; 60 min after addition)?
The value was 5e+06 g⁻¹.

And the “The number … in specimen” value ([4]; 60 min after addition, listed as 70% ethanol)?
The value was 5e+06 g⁻¹.

What about the “effect on the spores” value [5] of the same compound?
The value was “no effect”.

And the “Spore decay rate, Spores of Clostridium species” value ([5]; 1 min contact)?
The value was 0%.

What about the “Spore decay rate, Spores of Clostridium species” value ([5]; 5 min contact) of the same compound?
Its value is 0%.

And the “Spore decay rate, Spores of Clostridium species” value ([5]; 10 min contact)?
The value was 0%.

What about the “Spore decay rate, Spores of Clostridium species” value ([5]; 30 min contact) of the same compound?
The value was 0%.

And the “Spore decay rate, Spores of Clostridium species” value ([5]; 60 min contact)?
The value was 0%.

And the “Spore decay rate, Spores of Clostridium species” value ([5]; 120 min contact)?
The value was 0%.

And the “number of bacteria on skin relative to before application” value ([6]; after 60 minutes)?
Its value is 45%.

And the “The number of viable bacteria on skin surface, relative value” (“The number … relative value” below) ([6]; after 15 min)?
The value was 12.

And the “The number … relative value” ([6]; after 30 min)?
The value was 20.

What about the “The number … relative value” ([6]; after 60 min) of the same compound?
Its value is 45.

And the “The number … relative value” ([6]; immediately after)?
The value was 0.

And the “The number … relative value” ([6]; immediately after, listed as 70% ethanol)?
The value was “no bacteria was observed”.

What about the “The number … in specimen” value ([7]; 5 min after addition) of the same compound?
Its value is 5e+07 g⁻¹.

What about the “The number … in specimen” value ([7]; 15 min after addition) of the same compound?
Its value is 200000 g⁻¹.

What about the “The number … in specimen” value ([7]; 30 min after addition) of the same compound?
Its value is 80000 g⁻¹.

And the “The number … in specimen” value ([7]; 60 min after addition)?
The value was 50000 g⁻¹.

What about the “The number … in specimen” value ([8]; 5 min after addition) of the same compound?
The value was 7e+07 g⁻¹.

And the “The number … in specimen” value ([8]; 15 min after addition)?
Its value is 500000 g⁻¹.

What about the “The number … in specimen” value ([8]; 30 min after addition) of the same compound?
Its value is 10000 g⁻¹.

What about the “The number … in specimen” value ([8]; 60 min after addition) of the same compound?
The value was 10000 g⁻¹.

With `O=C1O[C@H]([C@@H](O)CO)C(O)=C1O` [L-ascorbic acid] as the compound, how does the “antimicrobial activity of aqueous solution itself” value [9] read?
Its value is “almost no antimicrobial activity”.

With `O.O.O.O.O.O=S(=O)([O-])[O-].[Cu+2]` [Cu^2+, CuSO4•5H2O] as the compound, how does the 100% death time [10, 14] read?
Its 100% death time is 60 min.

What about the 100% death time [10, 15] of the same compound?
The 100% death time was 50 min.

What about the 100% death time [10, 16] of the same compound?
Its 100% death time is 75 min.

What about the 100% death time [10, 17] of the same compound?
The 100% death time was 1.5 min.

What about the 100% death time [10, 18] of the same compound?
Its 100% death time is 1 min.

What about the 100% death time [10, 19] of the same compound?
Its 100% death time is 0.75 min.

And the 100% death time ([10]; Cu^2+ ion 50 ppm alone)?
Its 100% death time is 90 min.

And the “(a) Antiproliferative activity, concentration” value [11]?
Its value is 5~30 ppm.

What about the “(b) Bacteriostatic activity, concentration” value [11] of the same compound?
Its value is 25~120 ppm.

What about the “(c) Bactericidal activity, concentration” value [11] of the same compound?
Its value is 100 ppm>.

And the “Acceleration of growth, concentration” value [11]?
The value was 5 ppm<.

And the “(a) Antiproliferative activity, concentration” value [12]?
Its value is 10~50 ppm.

And the “(b) Bacteriostatic activity, concentration” value [12]?
The value was 40~150 ppm.

And the “Acceleration of growth, concentration” value [12]?
The value was 5 ppm<.

What about the 100% death time [13, 14] of the same compound?
The 100% death time was 60 min.

And the 100% death time [13, 15]?
Its 100% death time is 45 min.

And the 100% death time [13, 16]?
The 100% death time was 70 min.

What about the 100% death time [13, 17] of the same compound?
The 100% death time was 1 min.

And the 100% death time [13, 18]?
Its 100% death time is 1 min.

And the 100% death time [13, 19]?
Its 100% death time is 0.5 min.

And the 100% death time ([13]; Cu^2+ ion 50 ppm alone)?
The 100% death time was 90 min.
